Laboratory results taken from the NIST ThermoML archive (doi:10.1021/je1000582).
± gives the expanded uncertainty stated by the source.

Experiment: activity coefficient (dimensionless); of the first substance listed, at infinite dilution; xn = mol fraction of the nth substance listed
Conditions: 101 kPa, Liquid, Chromatography, x1 = 0

Cc1ccc(C)cc1 [1,4-dimethylbenzene] + CCCC[n+]1cccc(C)c1.O=S(=O)([O-])C(F)(F)F
activity coefficient (318.15 K): 2.46 ± 0.17
activity coefficient (328.15 K): 2.52 ± 0.17
activity coefficient (338.15 K): 2.57 ± 0.17
activity coefficient (348.15 K): 2.62 ± 0.18
activity coefficient (358.15 K): 2.68 ± 0.18

Cc1cccc(C)c1 [1,3-dimethylbenzene] + CCCC[n+]1cccc(C)c1.O=S(=O)([O-])C(F)(F)F
activity coefficient (318.15 K): 2.57 ± 0.17
activity coefficient (328.15 K): 2.62 ± 0.18
activity coefficient (338.15 K): 2.67 ± 0.18
activity coefficient (348.15 K): 2.71 ± 0.18
activity coefficient (358.15 K): 2.76 ± 0.19

Cc1ccccc1C [1,2-dimethylbenzene] + CCCC[n+]1cccc(C)c1.O=S(=O)([O-])C(F)(F)F
activity coefficient (318.15 K): 2.16 ± 0.15
activity coefficient (328.15 K): 2.2 ± 0.15
activity coefficient (338.15 K): 2.25 ± 0.15
activity coefficient (348.15 K): 2.29 ± 0.16
activity coefficient (358.15 K): 2.33 ± 0.16

C#CCCCC [1-hexyne] + CCCC[n+]1cccc(C)c1.O=S(=O)([O-])C(F)(F)F
activity coefficient (308.15 K): 2.86 ± 0.19
activity coefficient (318.15 K): 2.94 ± 0.2
activity coefficient (328.15 K): 3.03 ± 0.21
activity coefficient (338.15 K): 3.11 ± 0.21
activity coefficient (348.15 K): 3.19 ± 0.22
activity coefficient (358.15 K): 3.27 ± 0.22

C1CCCCC1 [cyclohexane] + CCCC[n+]1cccc(C)c1.O=S(=O)([O-])C(F)(F)F
activity coefficient (308.15 K): 13.2 ± 0.9
activity coefficient (318.15 K): 12.4 ± 0.8
activity coefficient (328.15 K): 11.7 ± 0.8
activity coefficient (338.15 K): 11.1 ± 0.8
activity coefficient (348.15 K): 10.6 ± 0.7
activity coefficient (358.15 K): 10.1 ± 0.7

CCCCCCC [heptane] + CCCC[n+]1cccc(C)c1.O=S(=O)([O-])C(F)(F)F
activity coefficient (308.15 K): 35.1 ± 2.4
activity coefficient (318.15 K): 32.7 ± 2.2
activity coefficient (328.15 K): 30.8 ± 2.1
activity coefficient (338.15 K): 29 ± 2
activity coefficient (348.15 K): 27.5 ± 1.9
activity coefficient (358.15 K): 26.1 ± 1.8

CO [methanol] + CCCC[n+]1cccc(C)c1.O=S(=O)([O-])C(F)(F)F
activity coefficient (318.15 K): 0.642 ± 0.044
activity coefficient (328.15 K): 0.617 ± 0.043
activity coefficient (338.15 K): 0.592 ± 0.042
activity coefficient (348.15 K): 0.57 ± 0.041
activity coefficient (358.15 K): 0.551 ± 0.04

C=CCCCCCC [oct-1-ene] + CCCC[n+]1cccc(C)c1.O=S(=O)([O-])C(F)(F)F
activity coefficient (308.15 K): 24.3 ± 1.7
activity coefficient (318.15 K): 23.2 ± 1.6
activity coefficient (328.15 K): 22.3 ± 1.5
activity coefficient (338.15 K): 21.5 ± 1.5
activity coefficient (348.15 K): 20.8 ± 1.4
activity coefficient (358.15 K): 20 ± 1.4

C=CCCCC [hex-1-ene] + CCCC[n+]1cccc(C)c1.O=S(=O)([O-])C(F)(F)F
activity coefficient (308.15 K): 11.9 ± 0.8
activity coefficient (318.15 K): 11.5 ± 0.8
activity coefficient (328.15 K): 11.2 ± 0.8
activity coefficient (338.15 K): 10.9 ± 0.7
activity coefficient (348.15 K): 10.6 ± 0.7
activity coefficient (358.15 K): 10.3 ± 0.7

COC(C)(C)C [2-methoxy-2-methylpropane] + CCCC[n+]1cccc(C)c1.O=S(=O)([O-])C(F)(F)F
activity coefficient (308.15 K): 4.21 ± 0.29
activity coefficient (318.15 K): 4.22 ± 0.29
activity coefficient (328.15 K): 4.23 ± 0.29
activity coefficient (338.15 K): 4.23 ± 0.29
activity coefficient (348.15 K): 4.24 ± 0.29
activity coefficient (358.15 K): 4.24 ± 0.29

CCCO [propan-1-ol] + CCCC[n+]1cccc(C)c1.O=S(=O)([O-])C(F)(F)F
activity coefficient (318.15 K): 1.11 ± 0.07
activity coefficient (328.15 K): 1.06 ± 0.07
activity coefficient (338.15 K): 1 ± 0.06
activity coefficient (348.15 K): 0.958 ± 0.06
activity coefficient (358.15 K): 0.919 ± 0.058

c1ccccc1 [benzene] + CCCC[n+]1cccc(C)c1.O=S(=O)([O-])C(F)(F)F
activity coefficient (308.15 K): 1.2 ± 0.08
activity coefficient (318.15 K): 1.23 ± 0.08
activity coefficient (328.15 K): 1.25 ± 0.08
activity coefficient (338.15 K): 1.27 ± 0.08
activity coefficient (348.15 K): 1.29 ± 0.08
activity coefficient (358.15 K): 1.31 ± 0.09

C#CCCCCCC [1-octyne] + CCCC[n+]1cccc(C)c1.O=S(=O)([O-])C(F)(F)F
activity coefficient (318.15 K): 5.88 ± 0.4
activity coefficient (328.15 K): 5.97 ± 0.41
activity coefficient (338.15 K): 6.05 ± 0.41
activity coefficient (348.15 K): 6.14 ± 0.42
activity coefficient (358.15 K): 6.23 ± 0.42

C=CCCC [1-pentene] + CCCC[n+]1cccc(C)c1.O=S(=O)([O-])C(F)(F)F
activity coefficient (308.15 K): 8.67 ± 0.59
activity coefficient (318.15 K): 8.44 ± 0.58
activity coefficient (328.15 K): 8.23 ± 0.56
activity coefficient (338.15 K): 8.03 ± 0.55
activity coefficient (348.15 K): 7.88 ± 0.54
activity coefficient (358.15 K): 7.73 ± 0.53

CCCCCCCCCC [decane] + CCCC[n+]1cccc(C)c1.O=S(=O)([O-])C(F)(F)F
activity coefficient (308.15 K): 104 ± 7.2
activity coefficient (318.15 K): 94.9 ± 6.5
activity coefficient (328.15 K): 87.6 ± 6
activity coefficient (338.15 K): 80.2 ± 5.5
activity coefficient (348.15 K): 74.6 ± 5.1
activity coefficient (358.15 K): 69.5 ± 4.8

CCCCCC [hexane] + CCCC[n+]1cccc(C)c1.O=S(=O)([O-])C(F)(F)F
activity coefficient (308.15 K): 24.7 ± 1.7
activity coefficient (318.15 K): 23.2 ± 1.6
activity coefficient (328.15 K): 22.1 ± 1.5
activity coefficient (338.15 K): 20.9 ± 1.4
activity coefficient (348.15 K): 20 ± 1.4
activity coefficient (358.15 K): 19.1 ± 1.3

CCc1ccccc1 [ethylbenzene] + CCCC[n+]1cccc(C)c1.O=S(=O)([O-])C(F)(F)F
activity coefficient (318.15 K): 2.76 ± 0.19
activity coefficient (328.15 K): 2.78 ± 0.19
activity coefficient (338.15 K): 2.8 ± 0.19
activity coefficient (348.15 K): 2.81 ± 0.19
activity coefficient (358.15 K): 2.83 ± 0.19

Cc1ccccc1 [toluene] + CCCC[n+]1cccc(C)c1.O=S(=O)([O-])C(F)(F)F
activity coefficient (318.15 K): 1.76 ± 0.12
activity coefficient (328.15 K): 1.79 ± 0.12
activity coefficient (338.15 K): 1.82 ± 0.12
activity coefficient (348.15 K): 1.85 ± 0.12
activity coefficient (358.15 K): 1.88 ± 0.13
